From PubChem BioAssay (NCI)
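A five-concentration, 48-hour dose response in 96-well plates underlies each endpoint, interpolated linearly between surrounding concentrations. Here, GI50 denotes the concentration required for 50% inhibition of growth. TGI denotes the concentration required for complete inhibition of growth.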

How the values were obtained:
Assay in all cases: DTP human tumour cell line panel, 48 h
UACC-257 melanoma = tested on: UACC-257 melanoma
MDA-MB-231 breast = tested on: MDA-MB-231 breast
SK-MEL-2 melanoma = tested on: SK-MEL-2 melanoma
TK-10 renal = tested on: TK-10 renal
COLO 205 colon = tested on: COLO 205 colon
MOLT-4 leukemia = tested on: MOLT-4 leukemia
K-562 leukemia = tested on: K-562 leukemia
SF-268 CNS = tested on: SF-268 CNS
SNB-75 CNS = tested on: SNB-75 CNS
OVCAR-8 ovarian = tested on: OVCAR-8 ovarian
M14 melanoma = tested on: M14 melanoma
OVCAR-3 ovarian = tested on: OVCAR-3 ovarian
HCC-2998 colon = tested on: HCC-2998 colon
BT-549 breast = tested on: BT-549 breast
UO-31 renal = tested on: UO-31 renal
DU-145 prostate = tested on: DU-145 prostate
HS 578T breast = tested on: HS 578T breast
HCT-15 colon = tested on: HCT-15 colon
HCT-116 colon = tested on: HCT-116 colon
NCI/ADR-RES ovarian = tested on: NCI/ADR-RES ovarian
SNB-19 CNS = tested on: SNB-19 CNS
RXF 393 renal = tested on: RXF 393 renal
KM12 colon = tested on: KM12 colon
NCI-H226 lung = tested on: NCI-H226 lung
A549 NSCLC = tested on: A549 NSCLC
HL-60(TB) leukemia = tested on: HL-60(TB) leukemia
SR leukemia = tested on: SR leukemia
RPMI-8226 leukemia = tested on: RPMI-8226 leukemia
HOP-92 NSCLC = tested on: HOP-92 NSCLC

CS(=O)(=O)c1nccc(-c2c(-c3ccc(F)c(OCc4ccc(F)cc4)c3)nc3sccn23)n1
GI50 (UACC-257 melanoma): 14.5 µM
TGI (UACC-257 melanoma): 28.4 µM
GI50 (MDA-MB-231 breast): 18.1 µM
TGI (MDA-MB-231 breast): 39.4 µM
GI50 (SK-MEL-2 melanoma): 15.2 µM
TGI (SK-MEL-2 melanoma): 29.6 µM
GI50 (TK-10 renal): 22.1 µM
TGI (TK-10 renal): 66.3 µM
GI50 (COLO 205 colon): 17.6 µM
TGI (COLO 205 colon): 34 µM
GI50 (MOLT-4 leukemia): 18.2 µM
TGI (MOLT-4 leukemia): 44.4 µM
GI50 (K-562 leukemia): 21 µM
TGI (K-562 leukemia): 72.8 µM
GI50 (SF-268 CNS): 15.9 µM
TGI (SF-268 CNS): 32.8 µM
GI50 (SNB-75 CNS): 16.4 µM
TGI (SNB-75 CNS): > 100 µM
GI50 (OVCAR-8 ovarian): 15 µM
TGI (OVCAR-8 ovarian): 28.3 µM
GI50 (M14 melanoma): 18.5 µM
TGI (M14 melanoma): 36.7 µM
GI50 (OVCAR-3 ovarian): 13.1 µM
TGI (OVCAR-3 ovarian): 25.8 µM
GI50 (HCC-2998 colon): 14.2 µM
TGI (HCC-2998 colon): 27.9 µM
GI50 (BT-549 breast): 21.2 µM
TGI (BT-549 breast): 63.6 µM
GI50 (UO-31 renal): 15.1 µM
TGI (UO-31 renal): 36.3 µM
GI50 (DU-145 prostate): 3.33 µM
TGI (DU-145 prostate): 11.1 µM
GI50 (HS 578T breast): 21.2 µM
TGI (HS 578T breast): 72.2 µM
GI50 (HCT-15 colon): 13.8 µM
TGI (HCT-15 colon): 31.4 µM
GI50 (HCT-116 colon): 14.4 µM
TGI (HCT-116 colon): 27.5 µM
GI50 (NCI/ADR-RES ovarian): 18 µM
TGI (NCI/ADR-RES ovarian): 38.7 µM
GI50 (SNB-19 CNS): 16 µM
TGI (SNB-19 CNS): 30 µM
GI50 (RXF 393 renal): 14.3 µM
TGI (RXF 393 renal): 29.2 µM
GI50 (KM12 colon): 17.6 µM
TGI (KM12 colon): 33.8 µM
GI50 (NCI-H226 lung): 28.3 µM
TGI (NCI-H226 lung): > 100 µM
GI50 (A549 NSCLC): 17.7 µM
TGI (A549 NSCLC): 34.6 µM
GI50 (HL-60(TB) leukemia): 3.89 µM
TGI (HL-60(TB) leukemia): 15.3 µM
GI50 (SR leukemia): 13.1 µM
TGI (SR leukemia): 60.8 µM
GI50 (RPMI-8226 leukemia): 20 µM
TGI (RPMI-8226 leukemia): 54.7 µM
GI50 (HOP-92 NSCLC): 5.43 µM
